CN(Cc1ccccc1)CN1C(=O)C(=NNC(=O)c2ccccc2OCc2ccccc2)c2ccccc21
Conditions | solubility (mole fraction)
in PEG-400, 298.15 K | 0.007
in PEG-400, 303.15 K | 0.00778
in PEG-400, 308.15 K | 0.00883
in PEG-400, 313.15 K | 0.00988
in PEG-400, 318.15 K | 0.0113

in water
Conditions | solubility (mole fraction)
298.15 K | 1.07e-06
303.15 K | 1.48e-06
308.15 K | 1.89e-06
313.15 K | 2.39e-06
318.15 K | 2.97e-06

From BigSolDB 2.1
